Measurements taken from US8791144B2, “Substituted N-phenyl-1-(4-Pyridinyl)-1H-pyrazol-3-amines” (Janssen Pharmaceutica NV, priority 2009, dated 2014).

What was measured:
[1] = target: T1, hα7-wt nAChR (Homo sapiens, UniProt P36544); test: Ca2+ flux imaging (FDSS): potentiation of the choline response; assay type: cell-based; details: for EC50: Ca2+ assay as described in D.1, potentiation of choline response, hα7-wt nAChR, read-out: Potency (pEC50) (converted)
Summary of the method: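 Cells expressing human α7-wt nAChR loaded with fluo-4AM (2 μM final) up to 120 min; HBSS/10 mM HEPES/5 mM CaCl2/0.1% BSA buffer. Compound (0.01–30 μM) applied up to 10 min before 100 μM choline; peak fluorescence measured on FDSS relative to choline alone (100%). EC50 from sigmoidal curves.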

[2] = target: T1, hα7-wt nAChR; test: Patch-clamp current recording (whole-cell voltage clamp), potentiation of choline current and PAM type; assay type: cell-based; design: key: Type 0 compounds minimally enhance the effect size of the current elicited by 1 mM choline.; Type 1 compounds enhance the effect size of the current elicited by 1 mM choline but minimally alter the kinetics of the receptor.; Type 2 compounds enhance the effect size of the current elicited by 1 mM choline while reducing the rate and/or the extent of desensitization.; Type 3 compounds enhance the effect size of the current elicited by 1 mM choline. When tested at higher concentrations up to 10 μM they completely inhibit desensitization, in particular a 1 mM choline application of 250 milliseconds.; Type 4 compounds allow for an initial desensitization of the receptor followed by a re-opening of the receptor during agonist application; details: hα7-wt nAChR-expressing GH4C1 cells, 1 mM choline
Summary of the method: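 GH4C1 cells stably expressing human wild-type α7 nAChR, whole-cell voltage clamp at −70 mV with rapid application (<100 ms); compound co-applied with 1 mM choline. Peak current potentiation expressed relative to choline-alone response (=100%); compounds reaching ≥200% assigned PAM type 0–4 by current kinetics and desensitization.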

T1 sequence (P36544 23-502): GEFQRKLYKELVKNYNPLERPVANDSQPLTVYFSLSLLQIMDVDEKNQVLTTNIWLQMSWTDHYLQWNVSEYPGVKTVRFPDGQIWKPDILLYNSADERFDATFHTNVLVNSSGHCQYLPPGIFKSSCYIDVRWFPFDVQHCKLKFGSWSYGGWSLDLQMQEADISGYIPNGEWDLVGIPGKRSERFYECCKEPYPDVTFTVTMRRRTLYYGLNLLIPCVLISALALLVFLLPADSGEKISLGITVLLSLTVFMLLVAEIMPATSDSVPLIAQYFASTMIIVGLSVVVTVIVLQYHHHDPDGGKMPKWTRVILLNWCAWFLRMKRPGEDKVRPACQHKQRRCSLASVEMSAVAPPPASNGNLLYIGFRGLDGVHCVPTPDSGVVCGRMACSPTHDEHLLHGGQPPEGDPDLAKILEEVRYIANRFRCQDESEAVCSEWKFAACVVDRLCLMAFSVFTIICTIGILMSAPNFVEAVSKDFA

Compound	EC50 [1] [nM]	melting point [°C]	PAM type [2]	Emax ([1]; read-out: % Efficacy) [%]
CCNC(=O)Cc1cc(Nc2cccc(C(F)(F)F)c2)nn1-c1ccnc(C)c1 [Compound 44, N-ethyl-1-(2-methyl-4-pyridinyl)-3-[[3-(trifluoromethyl)phenyl]amino]-1H-pyrazole-5-acetamide]	603	228.9	2	–
CCNC(=O)Cc1cc(Nc2cccc(OC(F)(F)F)c2)nn1-c1cc(C)nc(C)c1 [Compound 114, 1-(2,6-dimethyl-4-pyridinyl)-N-ethyl-3-[[3-(trifluoromethoxy)phenyl]amino]-1H-pyrazole-5-acetamide]	309	224.2	2	–
CCNC(=O)Cc1cc(Nc2ccc(F)c(F)c2)nn1-c1ccnc(C)c1 [Compound 28, 3-[(3,4-difluorophenyl)amino]-N-ethyl-1-(2-methyl-4-pyridinyl)-1H-pyrazole-5-acetamide]	2510	242.4	2	–
COCc1cc(Nc2ccc(F)c(F)c2)nn1-c1ccnc(C)c1 [Compound 22, N-(3,4-difluorophenyl)-5-(methoxymethyl)-1-(2-methyl-4-pyridinyl)-1H-pyrazol-3-amine]	1910	184.2	0	963

Second part, led by results:

EC50 [1] [nM]	melting point [°C]	Compound	PAM type [2]	Emax ([1]; read-out: % Efficacy) [%]
95.5	210.4	Cc1cc(-n2nc(Nc3cccc(Cl)c3F)cc2CC(=O)NCC2CC2)cc(C)n1 [Compound 80, 3-[(3-chloro-2-fluorophenyl)amino]-N-(cyclopropylmethyl)-1-(2,6-dimethyl-4-pyridinyl)-1H-pyrazole-5-acetamide]	2	–
170	146.4	COc1cc(Nc2cc(CCC(=O)N(C)C)n(-c3ccnc(C)c3)n2)cc(C(F)(F)F)c1 [Compound 9, 3-[[3-methoxy-5-(trifluoromethyl)phenyl]amino]-N,N-dimethyl-1-(2-methyl-4-pyridinyl)-1H-pyrazole-5-propanamide]	4	–
240	237.7	Cc1cc(-n2nc(Nc3ccc4c(c3)OC(F)(F)O4)cc2CC(=O)NC2CCC2)ccn1 [Compound 102, N-cyclobutyl-3-[(2,2-difluoro-1,3-benzodioxol-5-yl)amino]-1-(2-methyl-4-pyridinyl)-1H-pyrazole-5-acetamide]	2	–
490	132	Cc1cc(-n2nc(Nc3ccc4c(c3)OC(F)(F)O4)cc2CCC(=O)N(C)C)ccn1 [Compound 99, 3-[(2,2-difluoro-1,3-benzodioxol-5-yl)amino]-N,N-dimethyl-1-(2-methyl-4-pyridinyl)-1H-pyrazole-5-propanamide]	4	–
1290	222	CNC(=O)Cc1cc(Nc2cccc(OC(F)(F)F)c2)nn1-c1cc(C)nc(C)c1 [Compound 112, 1-(2,6-dimethyl-4-pyridinyl)-N-methyl-3-[[3-(trifluoromethoxy)phenyl]amino]-1H-pyrazole-5-acetamide]	2	–
